Reference: paper PMC4052314, “New Cyclic Cystine Bridged Peptides from the Sponge Suberites waedoensis” (Marine Drugs, 2014)
Positions of bridges follow the written chain, without caps; N, C: chain ends. Residues, ends and D or L forms follow the SMILES beside them.

Legend:
K562 cell-line [1] = test: Cytotoxicity assay, K562 cell line; assay type: cell-based; settings: literature protocols [21],[22]
Description: (§1) The cytotoxicity assays were performed in accord with literature protocols. The Na^+/K^+-ATPase inhibition assay was performed according to the previously described method.

A549 cell-line [2] = test: Cytotoxicity assay, A549 cell line; assay type: cell-based; settings: literature protocols [21],[22]
Description: as §1

Na+/K+-ATPase [3] = test: Na+/K+-ATPase inhibition assay; assay type: biochemical; settings: previously described method [23]
Description: as §1

A549 cell-line [4] = settings: cited from earlier work
Source text: (§2) In our search for bioactive metabolites from sponges found in Korean waters, we recently reported the structural determination of gombamide A, a cyclic thiohexapeptide from Clathria gombawuiensis. […] In our continuing search for bioactive metabolites in sponges, we report here the isolation and structural determinations of chujamides A (1) and B (2), new cyclic cystine bridged peptides from the sponge Suberites waedoensis (Figure 1). These proline- ...

Na+/K+-ATPase [5] = settings: cited from earlier work
Source text: as §2

K562 cell-line [6] = settings: cited from earlier work
Source text: as §2

Compound: CC[C@H](C)[C@H](NC(=O)CN)C(=O)N[C@H]1CSSC[C@@H](C(=O)O)NC(=O)[C@H]([C@@H](C)CC)NC(=O)[C@@H]2CCCN2C(=O)[C@H](CC(C)C)NC(=O)[C@H](Cc2ccccc2)NC(=O)[C@@H]2CCCN2C(=O)[C@@H]2CCCN2C(=O)[C@H](Cc2ccc(O)cc2)NC(=O)[C@@H]2CCCN2C1=O [Compound 1, chujamide A] (H-GICPYPPFLPIC-OH; disulfide 3-12)
- LC50, cytotoxicity toward K562 (K562 cell-line [1]): 37.0 µM
- LC50, cytotoxicity toward A549 (A549 cell-line [2]): 10.1 µM

Compound: CC[C@H](C)[C@H](N)C(=O)N[C@H]1CSSC[C@@H](C(=O)O)NC(=O)[C@H]([C@@H](C)CC)NC(=O)[C@@H]2CCCN2C(=O)[C@H](CC(C)C)NC(=O)[C@H](Cc2ccccc2)NC(=O)[C@@H]2CCCN2C(=O)[C@@H]2CCCN2C(=O)[C@H](Cc2ccc(O)cc2)NC(=O)[C@@H]2CCCN2C1=O [Compound 2, chujamide B] (H-ICPYPPFLPIC-OH; disulfide 2-11)
- LC50, cytotoxicity toward K562 (K562 cell-line [1]): 55.6 µM
- IC50 (Na+/K+-ATPase [3]): 17.2 µM
- LC50, cytotoxicity toward A549 (A549 cell-line [2]): 26.4 µM

Compound: COc1cccc2c1C(=O)c1c(O)c3c(c(O)c1C2=O)C[C@@](O)(C(=O)CO)C[C@@H]3O[C@H]1C[C@H](N)[C@H](O)[C@H](C)O1 [doxorubicin]
- LC50, cytotoxicity toward K562 (K562 cell-line [1]): 1.5 µM
- LC50, cytotoxicity toward A549 (A549 cell-line [2]): 1.3 µM

Compound: gombamide A
- cytotoxicity against A549 (in words) (A549 cell-line [4]): exhibited cytotoxicity
- inhibitory activity against Na+/K+-ATPase (in words) (Na+/K+-ATPase [5]): inhibitory activity
- cytotoxicity against K562 (in words) (K562 cell-line [6]): exhibited cytotoxicity
